Source: ChEMBL document CHEMBL1201862, “PubChem BioAssay data set” (2004)
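Growth conditions: 96-well plates. Treatment: test compound, 48 hours, 5 concentrations. Analysis: linear interpolation between bracketing concentrations; unreached endpoints set to highest concentration. GI50 is the concentration that inhibits growth by half.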 Calls of active or inactive are those of the source. No stated cut-off is given here; in the data, active = GI50 up to about 1.1 µM and inactive = higher.

Key:
Assay in all cases: DTP human tumour cell line panel, 48 h
[1] = system: NCI-H23
[2] = system: NCI-H226
[3] = system: HCC 2998
[4] = system: SK-MEL-2
[5] = system: SF-268
[6] = system: SF-539
[7] = system: MDA-N
[8] = system: IGROV-1
[9] = system: CCRF-CEM
[10] = system: COLO 205
[11] = system: TK-10
[12] = system: UO-31
[13] = system: Malme-3M
[14] = system: SN12C
[15] = system: PC-3
[16] = system: SNB-75
[17] = system: CAKI-1
[18] = system: OVCAR-5
[19] = system: RXF 393
[20] = system: NCI-H460

Measured: GI50

C[n+]1c(-c2ccc(NC(=O)c3ccc(C(=O)Nc4ccc(-c5cn6ccccc6[n+]5C)cc4)cc3)cc2)cn2ccccc21
inactive: [1] > 100 µM | [2] > 100 µM | [3] > 100 µM | [4] > 100 µM | [5] > 100 µM | [6] > 70.5 µM | [7] > 69.8 µM | [8] > 66.5 µM | [9] > 65.6 µM | [10] > 56.2 µM | [11] > 100 µM | [12] > 100 µM | [13] 56.5 µM | [14] > 66.1 µM | [15] > 100 µM | [16] 60.8 µM | [17] > 100 µM | [18] > 100 µM | [19] 39.6 µM | [20] > 100 µM

COc1ccc2c(=O)c3ccoc3n(CC=C(C)C)c2c1 [ACROPHYLLINE]
inactive: [1] 46.1 µM | [2] > 87.9 µM | [3] > 91.4 µM | [4] 81.7 µM | [5] 78.2 µM | [6] 97.1 µM | [7] 73.8 µM | [8] 74.5 µM | [9] 39.4 µM | [10] > 85.3 µM | [11] > 100 µM | [12] 18.2 µM | [13] 3.84 µM | [14] > 100 µM | [15] 36.4 µM | [16] 26.4 µM | [17] 2.99 µM | [18] > 100 µM | [19] 28.5 µM | [20] 50.2 µM

CCOc1cc(NC(C)=O)ccc1C(=O)NN1C(=O)C(Cl)C1c1ccco1 (stereo not given)
inactive: [1] 16.6 µM | [2] 18.5 µM | [3] 16 µM | [4] 18.6 µM | [5] 16.1 µM | [6] 14.9 µM | [7] 14.4 µM | [8] 13.1 µM | [9] 4.58 µM | [10] 17.2 µM | [11] 17.4 µM | [12] 2.86 µM | [13] 11.7 µM | [14] 14.5 µM | [15] 17.9 µM | [16] 13.8 µM | [17] 17.1 µM | [18] 20.6 µM | [19] 12.3 µM | [20] 17.3 µM
